The source of these data is US20220160680A1, “MICROORGANISM MIXTURES, MOLECULES DERIVED THEREFROM, AND METHODS OF USE THEREOF” (B. G. Negev Technologies and Applications Ltd., at …, priority 2018, published 2022).

What all share (format): cell-based, Vibrio cholerae
Test [1] concerns V. cholerae VC1 (WT) and MM920. Nature of the test: V. cholerae biofilm modulation (CLSM, crystal violet).
Description: The various pathogenic indicator strains used in this study were V. cholerae strain MM920 (ACqsA AluxQ), Vibrio harveyi strain MM30 (LuxS, Tn5). To initiate biofilm formation, bacteria was grown in the absence of the V. cholerae autoinducer 1 (CAI1). In addition, the bacteria were grown in presence of: 900 nM CAI1 (Vibrio Cholerae MM920), 900 nM CAI1, 200 μM Tryptophol acetate and 200 μM Tyrosol acetate, and 200 μM Tryptophol acetate and 200 μM Tyrosol acetate.
Biofilms were grown under shaking conditions at 30° C. in 96-well plate (Thermo Scientific, Rochester, N.Y., USA). […] The stained cells were washed twice with PBS. Biofilm images were taken by CLSM (Plan-Apochromat 20×/0.8 M27, Zeiss LSM880, Germany).
For static biofilm assay, overnight cultures of V. cholerae strain MM920 was diluted 1:10 in fresh LB medium containing a final concentration of 100 μM from each Tryptophol acetate and Tyrosol acetate or DMSO (up to 1%) as control. […] One in absence of the V. cholerae autoinducer (CAI-1) and the other one in presence of 900 nM CAI-1. Biofilms were grown under non-shaking conditions at 37° C. in 96-well plate (Thermo Scientific, Rochester, N.Y., USA). […] The stained cells were washed twice with PBS. Biofilm images were taken by CLSM (Plan-Apochromat 20×/0.8 M27, Zeiss LSM880, Germany).
Biofilm matrixes of V. cholerae VC1 WT (FIGS. 23Ai and 23Aii), and the V. cholerae MM920 mutant (FIGS. 23Aiii and 23Aiv) were grown for 24 hours with or without tryptophol acetate in the growth medium, and stained using the BacLight® Dead/Live Kit to distinguish viable cells.
Another test concerns V. cholerae toxin. Description: GM1-ELISA cholerae toxin detection assay. How it is done: GM1 (monosialotetrahexosylganglioside) was seeded and immobilized on a 96-well white/clear bottom microtiter plate (Greiner) microtiter plates with the following procedure: GM1 stock solution (2 mg/mL in PBS) was diluted with PBS (final conc. 10 μg/mL). 200 μL of the GM1 solution was added to each well and incubated at 37° C. without shaking for 4-16 hours. The plates were washed with PBS (×3). Bovine serum albumin (BSA) was dissolved in PBS (final conc. 4 mg/mL) and 200 μL of the BSA-PBS were added to each well and incubated at 37° C. without shaking for at least 4 hours. The plates were washed with PBS (×3) and were stored in fridge until use. VC1 wild-type strain with of the tested compounds (Tryptophol acetate and Tyrosol acetate both in concentration of 100 μM) and a control with bacteria only, were grown and incubated with aeration and shaking overnight in LB medium at 30° C. The cultures were spinned-down for 5 min at 5,000 rcf and the supernatant was taken and diluted 1:2 with a BSA-PBS 4 mg/mL solution. […] 100 μL of the luminol working solution were added to each well, the plate was shaken for 1.5-2 minutes and the luminescence was measured using a Microtiter Plate Reader (Varioskan Flash, Thermo). Luminescence values were normalized to the control.
In general terms: In an ELISA, binding on a coated surface is turned into a signal by an enzyme label.

For the next test, the system named is V. cholerae VC1 WT. Description: RT-qPCR of QS genes. Conditions: 100 μM. How it is done:
RNA was extracted from wild-type strain VC1 cultured in LB lennox medium supplemented with or without 100 μM Tryptophol acetate or Tyrosol acetate grown to an A600 of approximately 1.0OD using the RNA Protect Bacteria reagent and the RNeasy® Mini Kit (Qiagen, Valencia, Calif.) as per the manufacturer's instructions, including the on-column DNase I digestion described by the manufacturer. Purified RNA was quantified using a Banalyzer (Eppendorf, Hamburg, Germany). cDNA was synthesized from 1 μg of RNA using PrimeScript™ RT reagent kit (Takara, Ohtsu, Japan). The reaction was incubated at 37° C. for 30 min, and 2 μl of cDNA was subjected to RT-PCR analysis on an AB Step One Plus PCR system (Applied Biosystems, Carlsbad, Calif.), using qPCRBIO SyGreen Blue mix Hi-ROX (PCR Biosystems, London, UK). RT-PCR was performed in a 96-well plate (Bio-Rad) in triplicate in a 20 μl volume. The mdh gene was used as an endogenous loading control for the reactions. The amount of transcript was analyzed with StepOnePlus Software V2.3 (Applied Biosystems Carlsbad, Calif.). Mdh forward primer 5′-[…]-3′ (SEQ ID NO: 1); Mdh reverse primer 5′-[…]-3′ (SEQ ID NO: 2); vpsT forward primer 5′-[…]-3′ (SEQ ID NO: 3); vpsT reverse primer 5′-[…]-3′ (SEQ ID NO: 4); ctxA forward primer 5′-[…]-3′ (SEQ ID NO: 5); ctxA reverse primer 5′-[…]-3′ (SEQ ID NO: 6); aphA forward primer 5′-[…]-3′ (SEQ ID NO: 7); aphA reverse primer 5′-[…]-3′ (SEQ ID NO: 8). For Transcriptome libraries construction, we used the purified RNA as described in section Quantitative Real-time PCR (RT-PCR) Analysis. The ribosomal RNA was depleted using MICROBExpress kit (Invitrogen by Thermo Fisher Scientific, Lithuania). The libraries preparation was performed using SMARTer Standard RNA-Seq kit (Takara Bio, USA) according to manufacture instruction. High Throughput Sequencing Analysis was done by Illumina HiSeq 2500, SR 50 bp and barcode Raw data quality values phred+33. the amount and percentage of reads that passed the sequencer's automated quality filter, control mapping value, error rate, and per-base quality scores indicate that the sequencing was of high quality. Only a small percentage of reads were discarded due to trimming and the peak of the length distribution is at the original length of 51. The Software and applications that were used for comparison analyses are Library quality control: FASTQC version 0.11.5; Trim_galore (uses cutadapt version 1.10); Mapping: Tophat2 version 2.1.0 (uses Bowtie2 version 2.2.6); Gene counting: HTseq-count version 0.6.1. For normalization and differential expression analysis, DESeq2 R package version 1.18.1 Input files. The reference genome used in the analysis was of Vibrio cholerae O1 biovar El Tor str. N16961, from the following link: ftp://ftp.ncbi.nlm.nih.gov/genomes/all/GCF/000/006/745/GCF_000006745.1_ASM674v1. Counting was performed using an annotation file downloaded at the following link: ftp://ftp.ncbi.nlm.nih.gov/genomes/all/GCF/000/006/745/GCF_000006745.1_ASM674v1/G CF_000006745.1_ASM674v1_genomic.gtf.gz. All these files can be found in our FTP server, see section 4-Analysis result files.
Background: Real-time PCR tracks product formation cycle by cycle.

Entries after “also recorded” stand apart in the source; their conditions may differ.

For `CC(=O)OCCc1c[nH]c2ccccc12` [Tryptophol acetate], the “Biofilm volume, crystal violet (CV) assay” value in test [1] (0-200 μM, 24 hr) is recorded as “increased biofilm volume”. Also, the “Biofilm of V. cholerae MM920 with CAI-1” value in test [1] (900 nM CAI-1 and 100 μM) was “re-formation of a dense and uniform biofilm layer”. Besides, the “Biofilm matrix of V. cholerae VC1 WT” value in test [1] (100 μM, 24 hours) was “significantly denser biofilm”. The “V. cholerae toxin levels” value with V. cholerae toxin is “reduce V. cholerae toxin levels in a dose dependent manner”. In the test on V. cholerae VC1 WT (high cell density), the aphA expression entry is listed as “upregulation”, the ctxA expression result is “significantly repressed”, the hapA expression entry is given as “lower expression” and the hapR expression entry is given as “significant downregulation”. For the same compound, the vpsT expression entry in the test with V. cholerae VC1 WT (high cell density) is reported as “remarkable upregulation”.

As for `CC(=O)OCCc1ccc(O)cc1` [Tyrosol acetate], the “V. cholerae biofilm production” value in test [1] (100 μM) was “inhibit”. In the test on V. cholerae toxin, the “V. cholerae toxin levels” value is reported as “inhibit; also recorded: reduction of toxin production by V. cholerae in a dose dependent manner”. In the test on V. cholerae VC1 WT, the “QS-related genes' expression” value is listed as “affect QS-related genes' expression”.
